ChEMBL document CHEMBL4257529, “Antifungal amphiphilic kanamycins: new life for an old drug” (Medchemcomm, 2018)

Assays:
Assay type in all cases: functional
Fusarium graminearum [1] = test: Antifungal activity against Fusarium graminearum infected in wheat plant assessed as fusarium head blight incidence at 1.02 L/ha (reference value: 70%)
Fusarium graminearum [2] = test: Antifungal activity against Fusarium graminearum infected in wheat plant assessed as fusarium head blight index at 0.512 L/ha (reference value: 53%)
Fusarium graminearum [3] = test: Antifungal activity against Fusarium graminearum infected in wheat plant assessed as fusarium head blight severity at 0.512 L/ha (reference value: 75%)
Fusarium graminearum [4] = test: Antifungal activity against Fusarium graminearum infected in wheat plant assessed as fusarium head blight incidence at 0.512 L/ha (reference value: 70%)
Fusarium graminearum [5] = test: Antifungal activity against Fusarium graminearum infected in wheat plant assessed as fusarium head blight severity at 1.02 L/ha (reference value: 75%)
Fusarium graminearum [6] = test: Antifungal activity against Fusarium graminearum infected in wheat plant assessed as fusarium head blight index at 1.02 L/ha (reference value: 53%)

CC1(C)CCC(Cc2ccc(Cl)cc2)C1(O)Cn1cncn1 (stereo unspecified) [METCONAZOLE]
Activity (Fusarium graminearum [1]): 12% | Activity_index (Fusarium graminearum [2]): 9% | Activity (Fusarium graminearum [3]): 69% | Activity (Fusarium graminearum [4]): 13% | Activity (Fusarium graminearum [5]): 58% | Activity_index (Fusarium graminearum [6]): 7%
